Source: US7566722B2, “Triazolopyrimidine derivatives as ADP P2Y12 receptor antagonists” (Janssen Pharmaceutica, N.V., priority 2006, dated 2009)

How the values were obtained:
P2Y12 receptor = biological target: T1, P2Y12 receptor (Homo sapiens, UniProt Q9H244); assay: Whole cell receptor binding assay, 2-MeS[3H]-ADP; details: HEK 293 cells stably transfected with P2Y12; 2-MeS[3H]-ADP 3 nM; 30 min at 37° C.; read-out: Inhibition of Receptor Binding (IC50 μM)
T1 construct: expressed in transfected cells
T1 sequence (Q9H244 whole entry): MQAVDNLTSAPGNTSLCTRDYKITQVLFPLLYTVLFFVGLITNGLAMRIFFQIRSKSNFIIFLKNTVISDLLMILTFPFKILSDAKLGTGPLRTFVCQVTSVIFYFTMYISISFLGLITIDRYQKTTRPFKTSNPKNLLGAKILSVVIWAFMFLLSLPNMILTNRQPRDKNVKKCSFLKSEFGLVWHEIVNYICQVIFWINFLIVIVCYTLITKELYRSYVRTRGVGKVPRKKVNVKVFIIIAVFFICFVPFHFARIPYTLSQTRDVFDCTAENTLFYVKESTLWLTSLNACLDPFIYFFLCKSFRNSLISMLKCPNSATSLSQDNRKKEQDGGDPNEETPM
Procedure: A whole cell-binding assay for 2-MeS [^3H]-ADP (Custom synthesized by Amersham BioScience, Piscataway, N.J.) to the P2Y12 receptor was performed.
A P2Y12 cDNA containing hygromycin resistant gene was transfected in HEK 293 cells. A stable cell line was obtained by a cloning selection method. The cells were cultured in DMEM supplemented with 10% FBS and 1× of p/s.
On the day of the assay, the cells were harvested and resuspended in 0.25% BSA-DMEM and adjusted to a cell concentration of 1.6×10^6/ml. 15 μl of each compound was mixed with 120 μl of cell suspension in 96 well assay plates and incubated for 5 min prior to the addition of the radio-labeled ligand 2-MeS[^3H]-ADP (3 nM final in 0.25% BSA-DMEM) or unlabeled […] (for non-specific binding). The reaction was then incubated for 30 min at 37° C. and stopped by adding cold DMEM. The labeled and unlabeled cells were separated by a filtration method using a Packard Filtermate 196 on to the unfilter-96 GF/B plate. The plates were dyed in a 37° C. oven for 1-2 hours and 50 μl of MicroScint-20 (PerkinElmer) was added to each well. The radioactivity was measured using a TOPCOUNT beta counter (Packard). The percent inhibition for each compound was calculated by the change in radioactivity as a % inhibition of the control to obtain an IC50, as shown in Table 2.

ADP P2Y12 receptor = biological target: T2, ADP P2Y12 receptor (Homo sapiens, UniProt Q9H244); assay: FLIPR calcium assay transducing Gi-coupled signaling to the Gq pathway (inhibition of ADP-induced calcium mobilization); assay type: cell-based; details: HEK 293 cells co-transfected with P2Y12 and Gqi5, ADP at EC60-70 dose
T2 construct: expressed in transfected cells
T2 sequence (Q9H244 whole entry): as above
Text: A FLIPR Calcium Assay Transducing Gi-Coupled Signaling to the Gq Pathway
The ADP P2Y12 subtype is a Gi coupled GPCR, which mediates inhibition of adenylate cyclase leading to decreased cAMP while Gq proteins primarily activate phospholipase C, which stimulates inositol-1,4,5-triphosphate (IP3) formation and a subsequent increase in intracellular Ca^2+ concentration, which can be easily measured by FLIPR. Prior to the development of a method to convert a Gi coupled GPCR signaling to a Gq coupled GPCR signaling, a significant barrier existed for the functional testing and screening of Gi coupled GPCRs. One popular method, GTPγS migration, is slow, produces a small signal and generates radioactive waste. The discovery that a small switch in the amino acid sequence in the Gi protein could convert it to a protein mediating a Gq coupled response has led to the development of robust, high throughput assays for this valuable receptor subtype.
The FLIPR-based HTS assay transducing the Gi signaling to the Gq pathway is described below.
pcDNA3hygroP2Y12 containing a hygromycin resistance gene and pLEC1-Gqi5-HA containing a neomycin resistance gene (licensed from Molecular Devices, Sunnyvale, Calif.) were co-transfected into Human embryonic kidney (HEK) 293 cells with SuperFect (Qiagen, Valencia, Calif.). Cell clones were selected in the presence of 600 μg/ml hygromycin B (Life Technologies, Carlsbad, Calif.) and 1 mg/ml of G418 (Mediatech, Herndon, Va.). Drug resistant colonies were picked and screened by FLIPR and the gene expression was further confirmed by RT-PCR. Positive clones were maintained in growth medium (DMEM supplemented with 10% FBS, 1× p/s) containing 400 μg/ml of G418 and 200 μg/ml of hygromycin.
The day before the assay, cells are seeded in clear, flat-bottom black-wall, tissue culture treated polystyrene 96- or 384-well plates and incubated at 37° C., 5% CO2. 50 μl of complete dye loading solution (FLIPR Calcium Assay Kit, Molecular Devices) was added to each well containing 100 μl of culture media. The cells were incubated for at least 30 min at 37° C., in 5% CO2 before initiating the assay on the FLIPR. The agonist effect of ADP was tested and EC50 was determined prior to compound testing. The EC60-70 dose was used.
The antagonist compounds were prepared at 4× and the agonists were diluted at 5× the concentration desired in the test wells, and then aliquoted into the sample plates. The sample plates and the cell plate were placed in the FLIPR assay chamber. A first addition (50 μl) was made at the start of reading and a second addition (50 μl) was made after 5 min of reading. Raw fluorescence data was exported for each well and tabulated versus time within an ASCII file. Data was then imported into Excel and the peak response over the basal level was determined. The percent inhibition for each compound was calculated by the change in fluorescent density as a % inhibition of the control ADP response to obtain an IC50, as shown in Table 1 (wherein N/A means Not Applicable).

platelets = assay: In vitro platelet aggregation (ADP-induced, washed platelets); assay type: cell-based; details: Homo sapiens, washed platelets from healthy volunteers, agonist giving 60-70% aggregation, % inhibition of control ADP response
Procedure: Platelet aggregation studies were performed according to a published method (Bednar, B., Condra, C., Gould, R. J., and Connolly, T. M., Throm. Res., 77:453-463 (1995). Platelet-rich plasma (PRP) concentrates prepared from healthy volunteers who were aspirin free for at least 7 days by venipuncture using ACD-A as anticoagulant was purchased from Biological Specialties, Inc. (Colmar, Pa.). PRP was centrifuged at 730 g for 15 min. The platelet pellet was washed twice in CGS buffer (13 mM sodium citrate, 30 mM glucose, 120 mM NaCl, pH 6.5) containing 1 μ/ml apyrase (grade V, Sigma-Aldrich, St. Louis, Mo.), 1 mM EGTA, and resuspended in Tyrode's buffer (140 mM NaCl, 2.7 mM KCl, 12 mM NaHCO3, 0.76 mM Na2HPO4, 5.5 mM dextrose, 5.0 mM Hepes, 0.2% BSA, pH 7.4). The platelets were diluted to 3×10^8 platelets/ml and kept >45 min at 37° C. before use. 105 μl of washed platelets, 2 mM CaCl2 and […] of fibrinogen were added to a 96-well microliter plate.
Platelet aggregation was initiated by the addition of serial concentrations of ADP (BioData Corp. Horsham, Pa.). Buffer was added to one set of control wells. The assay plate was stirred constantly and intermittently placed in a microplate reader (Softmax, Molecular Devices, Menlo Park, Calif.) to read optical density (650 nm) at 0 and 5 minutes after the addition of the compound solutions. Aggregation was calculated as the decrease in optical density between the time 0- and 5-min measurements and expressed as % of aggregation. For the inhibition assay, platelet aggregation was conducted as described above except for compound additions. Test compounds were prepared in 100% DMSO and stored.
On the day of the assay, test compounds were diluted in the buffer containing 3% of DMSO as a 10× working solution. 15 μl of compound solutions were added to 105 μl of platelets 5 min prior to the addition of CaCl2 and fibrinogen.

Row | Structure (SMILES) | IC50 (P2Y12 receptor) [µM] | IC50 (ADP P2Y12 receptor) [µM] | IC50 (platelets) [µM]
1 | CCCCNc1nc(SCCC)nc2c1nnn2[C@@H]1C[C@H](C2=NCCN2)[C@@H](O)[C@H]1O [Cpd 11, (1R,2S,3R,5R)-3-(7-butylamino-5-propylsulfanyl-[1,2,3]triazolo[4,5-d]pyrimidin-3-yl)-5-(4,5-dihydro-1H-imidazol-2-yl)-cyclopentane-1,2-diol] | 4.61 | > 30 | > 30
2 | CCCCNc1nc(SCCC)nc2c1nnn2[C@@H]1C[C@H](c2nnc(C)[nH]2)[C@@H](O)[C@H]1O [Cpd 13, (1R,2S,3R,5R)-3-(7-butylamino-5-propylsulfanyl-[1,2,3]triazolo[4,5-d]pyrimidin-3-yl)-5-(5-methyl-4H-[1,2,4]triazol-3-yl)-cyclopentane-1,2-diol] | 2.16 | 2.17 | 1.39
3 | CCCSc1nc(NCCc2cccs2)c2nnn([C@@H]3C[C@H](c4nnc(C)[nH]4)[C@@H](O)[C@H]3O)c2n1 [Cpd 15, (1S,2R,3R,5R)-3-(5-methyl-4H-[1,2,4]triazol-3-yl)-5-[5-propylsulfanyl-7-(2-thiophen-2-yl-ethylamino)-[1,2,3]triazolo[4,5-d]pyrimidin-3-yl]-cyclopentane-1,2-diol] | 3.74 | 10.4 | 6.47
4 | CCCSc1nc(NC[C@@H](C)c2ccccc2)c2nnn([C@@H]3C[C@H](c4nnc(C)[nH]4)[C@@H](O)[C@H]3O)c2n1 [Cpd 16, (1S,2R,3R,5R)-3-(5-methyl-4H-[1,2,4]triazol-3-yl)-5-{7-[(2S)-2-phenylpropylamino]-5-propylsulfanyl-[1,2,3]triazolo[4,5-d]pyrimidin-3-yl}-cyclopentane-1,2-diol] | 3.88 | > 30 | > 30
5 | CCCSc1nc(NC[C@H](C)c2ccccc2)c2nnn([C@@H]3C[C@H](c4nnc(C)[nH]4)[C@@H](O)[C@H]3O)c2n1 [Cpd 17, (1S,2R,3R,5R)-3-(5-methyl-4H-[1,2,4]triazol-3-yl)-5-{7-[(2R)-2-phenylpropylamino]-5-propylsulfanyl-[1,2,3]triazolo[4,5-d]pyrimidin-3-yl}-cyclopentane-1,2-diol] | 9.59 | > 30 | > 30
6 | CCCSc1nc(NCC(F)(F)F)c2nnn([C@@H]3C[C@H](c4nnc(C)[nH]4)[C@@H](O)[C@H]3O)c2n1 [Cpd 18, (1S,2R,3R,5R)-3-(5-methyl-4H-[1,2,4]triazol-3-yl)-5-[5-propylsulfanyl-7-(2,2,2-trifluoro-ethylamino)-[1,2,3]triazolo[4,5-d]pyrimidin-3-yl]-cyclopentane-1,2-diol] | 6.2 | > 30 | > 30
7 | CCCSc1nc(NCCSC)c2nnn([C@@H]3C[C@H](c4nnc(C)[nH]4)[C@@H](O)[C@H]3O)c2n1 [Cpd 19, (1R,2S,3R,5R)-3-[7-(2-methylsulfanyl-ethylamino)-5-propylsulfanyl-[1,2,3]triazolo[4,5-d]pyrimidin-3-yl]-5-(5-methyl-4H-[1,2,4]triazol-3-yl)-cyclopentane-1,2-diol] | 5.09 | > 30 | > 30

The next molecules have a lower IC50 (P2Y12 receptor) than those just listed; values first:

Row | IC50 (P2Y12 receptor) [µM] | IC50 (ADP P2Y12 receptor) [µM] | Structure (SMILES) | IC50 (platelets) [µM]
8 | 0.73 | 0.416 | CCCSc1nc(NCCc2ccccc2)c2nnn([C@@H]3C[C@H](c4nnn[nH]4)[C@@H](O)[C@H]3O)c2n1 [Cpd 12, (1R,2S,3R,5R)-3-(7-phenethylamino-5-propylsulfanyl-[1,2,3]triazolo[4,5-d]pyrimidin-3-yl)-5-(1H-tetrazol-5-yl)-cyclopentane-1,2-diol] | 0.292
9 | 0.422 | 0.765 | CCCCNc1nc(SCCC)nc2c1nnn2[C@@H]1C[C@H](c2nnc[nH]2)[C@@H](O)[C@H]1O [Cpd 20, (1R,2S,3R,5R)-3-(7-butylamino-5-propylsulfanyl-[1,2,3]triazolo[4,5-d]pyrimidin-3-yl)-5-(4H-[1,2,4]triazol-3-yl)-cyclopentane-1,2-diol] | 0.198
10 | 0.002 | 0.024 | CCCSc1nc(N[C@@H]2C[C@H]2c2ccccc2)c2nnn([C@@H]3C[C@H](c4nnn[nH]4)[C@@H](O)[C@H]3O)c2n1 [Cpd 22, (1R,2S,3R,5R)-3-{7-[(1R,2S)-2-phenyl-cyclopropylamino]-5-propylsulfanyl-[1,2,3]triazolo[4,5-d]pyrimidin-3-yl}-5-(1H-tetrazol-5-yl)-cyclopentane-1,2-diol] | 0.002
11 | 0.061 | 0.264 | CCCSc1nc(N[C@H]2C[C@@H]2c2ccccc2)c2nnn([C@@H]3C[C@H](c4nnn[nH]4)[C@@H](O)[C@H]3O)c2n1 [Cpd 23, (1R,2S,3R,5R)-3-{7-[(1S,2R)-2-phenyl-cyclopropylamino]-5-propylsulfanyl-[1,2,3]triazolo[4,5-d]pyrimidin-3-yl}-5-(1H-tetrazol-5-yl)-cyclopentane-1,2-diol] | 0.04
